Test results as given in publication PMC12775434, “Ultra-large virtual screening unveils potent agonists of the neuromodulatory orphan receptor GPR139” (Nature Communications, 2025).
Several values for one entry are separate records, joined by “and”; a condition that tells them apart may be missing. Equal values may be shown once.

Key:
GPR139 [1] = molecular target: T1, GPR139 (Homo sapiens, UniProt Q6DWJ6); test: Ca2+ mobilization assay, agonist mode, stable GPR139-CHOk1 cell line; type: cell-based
T1 sequence (Q6DWJ6 1-353): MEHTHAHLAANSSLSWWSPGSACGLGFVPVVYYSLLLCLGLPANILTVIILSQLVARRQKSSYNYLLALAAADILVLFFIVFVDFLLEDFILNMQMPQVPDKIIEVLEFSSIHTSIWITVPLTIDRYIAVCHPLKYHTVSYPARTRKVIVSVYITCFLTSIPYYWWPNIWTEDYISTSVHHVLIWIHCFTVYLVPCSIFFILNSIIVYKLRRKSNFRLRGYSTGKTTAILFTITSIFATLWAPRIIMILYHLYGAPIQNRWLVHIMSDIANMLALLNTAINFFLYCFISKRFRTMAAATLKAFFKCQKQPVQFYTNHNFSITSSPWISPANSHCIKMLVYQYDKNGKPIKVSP
Procedure: Primary screening and pharmacological characterization of compounds were performed using a CHO-K1 cell line that stably expresses human GPR139 (GPR139-CHOk1). The GPR139-CHOk1 cell line was kindly provided by H. Lundbeck A/S, Denmark[24]. GPR139-CHOk1 cells were grown in Ham’s F-12 Kaighn’s Modification Medium (ThermoFisher #21127030) supplemented with 10% dialyzed fetal bovine serum (US origin, ThermoFisher #26400044), 100 units/mL Penicillin-Streptomycin (ThermoFisher #15140122), and 1 mg/mL Geneticin (ThermoFisher #11811031). […] M1R-CHOk1 cells were purchased from The Missouri S&T cDNA Resource Center (#CEM100TN00). M1R-CHOk1 cells were grown in Ham’s F12 Medium (ThermoFisher #21765029) supplemented with 10% fetal bovine serum (Brazilian origin, ThermoFisher #10270106), 100 units/mL Penicillin-Streptomycin, and 0.25 mg/mL Geneticin. HEK293A cells transiently transfected with GPR139 were used for additional pharmacological assessment of signaling pathways activated by GPR139. HEK239A cells were generously provided by Dr. Asuka Inoue, Tohoku University, Japan. HEK293A cells were grown in Dulbecco’s Modified Eagle Medium (ThermoFisher #31966047) supplemented with 10% dialyzed fetal bovine serum and 100 units/mL Penicillin-Streptomycin. Cell lines were maintained at 37 °C in humidified incubator equilibrated with 5% CO2.
(§1) 30,000 GPR139- or M1R-CHOk1 cells/well were seeded in black clear bottom tissue culture treated 96-well plates (Greiner #655090) and grown for 20–24 h. Cells were washed with HEPES buffer (Hank’s Balanced Salt Solution (HBBS) supplemented with 20 mM HEPES, 1 mM MgCl2, and 1 mM CaCl2; pH 7.4). Cells were loaded with 50 µL of 2 µM Fluo-4 AM dye (ThermoFisher #F14202) in HEPES buffer supplemented with 2.5 mM probenecid and 0.01% Pluronic F-68 (ThermoFisher #24040032) for 1 h at 37 °C. Cells were washed with HEPES buffer. 50 µL HEPES buffer supplemented with 2.5 mM probenecid was added, and the cells were incubated for 10 min at 37 °C before measurement. 50 µL test compounds diluted in HEPES buffer from DMSO stocks (final DMSO concentration of maximally 0.3%) were added automatically after baseline measurements. The intracellular calcium mobilization was measured on a FlexStation 3 Multimode Microplate Reader (Molecular Devices) at 37 °C with filters for excitation of 485 nm and emission of 525 nm.
(§2) Our primary compound screening protocol consisted of two subsequent steps that allowed to screen for agonists and antagonists simultaneously. In the first step, the screening compounds were applied at 10 µM to test for agonist activity (agonist mode). Following 20 min incubation with the compounds added in the first step, in the second step, an EC80 concentration (800 nM) of the reference agonist Lundbeck Cmp 1a was applied to test for antagonist activity (antagonist mode).
Pharmacological data and statistical analyses were performed in GraphPad Prism v9–10 (Graphpad Software Inc., San Diego, CA), which are also specifically described in the figure and table legends. The functional assay responses were normalized to buffer (0%) and Lundbeck Cmp 1a or JNJ-63533054 (100%), for Ca^2+ and IP1 experiments in the GPR139-CHOk1 stable cell line or Ca^2+, G protein activation, and arrestin-3 recruitment experiments in the HEK293A cells transiently transfected with GPR139, respectively. Data are from at least three independent experiments, unless stated otherwise. Concentration-response curves were fitted applying non-linear regression using the log (agonist) versus response model with variable slope. ANOVA was applied for comparing results and determining statistical significance.

GPR139 [2] = molecular target: T1, GPR139; test: Ca2+ mobilization assay, antagonist mode (EC80 800 nM Lundbeck Cmp 1a after 20 min preincubation), GPR139-CHOk1; type: cell-based; conditions: individual replicates (Supplementary Figure 1)
Procedure: as §1
as §2, with “(antagonist mode). In the agonist mode (first step) response is seen only with compounds having agonist activity (Cmp 1a), but not with non-receptor-binding compounds (Vehicle) or antagonists (NCRW0105-E06) (Supplementary Fig. 14). […] No antagonist compounds were identified in this study.” for “(antagonist mode).”

[3] = Agonist mode, individual replicates (Supplementary Figure 1)
[4] = primary screen, 10 µM compound, agonist mode, three columns = independent experiments

Row | Compound | Ca2+ signal (% of Cmp 1a) (GPR139 [1]; [3]) | Ca2+ signal (% of Cmp 1a) (GPR139 [1]; [4]) | Ca2+ signal (% of Cmp 1a) (GPR139 [2])
1 | CC1(C)COc2cc(NC(=O)NCc3cccnn3)ccc21 [Compound 52, CC1(C)COC=2C=C(NC(=O)NCC=3C=CC=NN3)C=CC21] | 1.65 % of Cmp 1a and 1.26 % of Cmp 1a and 1.78 % of Cmp 1a | 1.65 % of Cmp 1a and 1.26 % of Cmp 1a and 1.78 % of Cmp 1a | 71.4617 % of Cmp 1a and 78.215 % of Cmp 1a and 78.5023 % of Cmp 1a
2 | C[C@@H](NC(=O)CSc1nnc2n1CCCCC2)c1ccccc1 [Compound 53, C[C@@H](NC(=O)CSC1=NN=C2CCCCCN12)C=3C=CC=CC3] | 10 % of Cmp 1a and 6 % of Cmp 1a and 3.73 % of Cmp 1a |  | 70.6126 % of Cmp 1a and 69.0784 % of Cmp 1a and 84.522 % of Cmp 1a
3 | C[C@@H](NC(=O)CSc1nnc(C(F)(F)F)s1)c1ccccc1 [Compound 54, C[C@@H](NC(=O)CSC1=NN=C(S1)C(F)(F)F)C=2C=CC=CC2] | 0.563 % of Cmp 1a and 1.54 % of Cmp 1a and 23 % of Cmp 1a |  | 75.2455 % of Cmp 1a and 70.4918 % of Cmp 1a and 82.6113 % of Cmp 1a
4 | C[C@@H](NC(=O)Cn1c2c(sc1=O)CCCCC2)c1ccccc1 [Compound 55, C[C@@H](NC(=O)CN1C=2CCCCCC2SC1=O)C=3C=CC=CC3] | 18 % of Cmp 1a and -2.59 % of Cmp 1a and 22 % of Cmp 1a |  | 74.6627 % of Cmp 1a and 75.4146 % of Cmp 1a and 90.0274 % of Cmp 1a
5 | Cc1ccc(C(C)(C)NC(=O)Nc2cnc3nccn3c2)cn1 [Compound 56, CC=1C=CC(=CN1)C(C)(C)NC(=O)NC=2C=NC3=NC=CN3C2] | 5.3 % of Cmp 1a |  | 82.8713 % of Cmp 1a
6 | O=C(CCn1nnn(-c2ccccc2)c1=O)Nc1ccc(F)cc1 [Compound 57, FC=1C=CC(NC(=O)CCN2N=NN(C=3C=CC=CC3)C2=O)=CC1] | 6 % of Cmp 1a and 0.524 % of Cmp 1a and 4 % of Cmp 1a |  | 80.3514 % of Cmp 1a and 84.9179 % of Cmp 1a and 81.9632 % of Cmp 1a
7 | O=C(Nc1nc(C(F)(F)F)cs1)c1ccccc1-n1cnnn1 [Compound 58, FC(F)(F)C1=CSC(NC(=O)C=2C=CC=CC2N3C=NN=N3)=N1] | 8 % of Cmp 1a and -1.73 % of Cmp 1a and -5 % of Cmp 1a |  | 95.3999 % of Cmp 1a and 91.9653 % of Cmp 1a and 85.8363 % of Cmp 1a
8 | Cc1ccc(Oc2ccc(NC(=O)C(C)n3cccn3)cn2)cc1 (stereo not shown) [Compound 59, CC(C(=O)NC=1C=CC(OC=2C=CC(C)=CC2)=NC1)N3C=CC=N3] | -2 % of Cmp 1a and -8 % of Cmp 1a and 2.12 % of Cmp 1a |  | 78.8114 % of Cmp 1a and 81.7621 % of Cmp 1a and 78.2182 % of Cmp 1a
9 | Cc1ccc(C(=O)Nc2cccc(-c3nnc[nH]3)c2)c2c1CCC2 [Compound 61, CC=1C=CC(C(=O)NC=2C=CC=C(C2)C3=NN=CN3)=C4CCCC41] | -6 % of Cmp 1a and -0.901 % of Cmp 1a and -0.172 % of Cmp 1a |  | 50.3835 % of Cmp 1a and 83.4509 % of Cmp 1a and 72.5179 % of Cmp 1a
10 | CCN(C(=O)c1cc(Cc2ccccc2)n[nH]1)c1ccc(F)cc1 [Compound 62, CCN(C(=O)C1=CC(CC=2C=CC=CC2)=NN1)C=3C=CC(F)=CC3] | 3 % of Cmp 1a and 5.34 % of Cmp 1a and 3.55 % of Cmp 1a | 3 % of Cmp 1a and 5.34 % of Cmp 1a and 3.55 % of Cmp 1a | 74.8769 % of Cmp 1a and 70.0616 % of Cmp 1a and 70.7351 % of Cmp 1a
11 | C[C@@H](NC(=O)CSc1nc2cc(Cl)cnc2[nH]1)c1ccccc1 [Compound 63, C[C@@H](NC(=O)CSC1=NC=2C=C(Cl)C=NC2N1)C=3C=CC=CC3] | 14 % of Cmp 1a and 5 % of Cmp 1a and 16 % of Cmp 1a |  | 69.704 % of Cmp 1a and 80.7602 % of Cmp 1a and 71.5084 % of Cmp 1a
12 | O=C(NCc1ccc(Cl)s1)c1ccnc(-n2cncn2)c1 [Compound 64, ClC1=CC=C(CNC(=O)C=2C=CN=C(C2)N3C=NC=N3)S1] | -4 % of Cmp 1a and -5 % of Cmp 1a and -0.942 % of Cmp 1a |  | 87.3464 % of Cmp 1a and 90.999 % of Cmp 1a and 82.6211 % of Cmp 1a
13 | Cc1noc(-c2ccc(C)c(NC(=O)CSc3nncs3)c2)n1 [Compound 65, CC1=NOC(=N1)C=2C=CC(C)=C(NC(=O)CSC3=NN=CS3)C2] | 2.7 % of Cmp 1a and 1.38 % of Cmp 1a and -3.61 % of Cmp 1a |  | 71.2308 % of Cmp 1a and 90.2803 % of Cmp 1a and 89.1818 % of Cmp 1a
14 | O=C(CCn1cncn1)Nc1ccc(Oc2ccc(Cl)cc2)nc1 [Compound 66, ClC=1C=CC(OC=2C=CC(NC(=O)CCN3C=NC=N3)=CN2)=CC1] | 6.43 % of Cmp 1a and -3.62 % of Cmp 1a and -6 % of Cmp 1a |  | 74.4571 % of Cmp 1a and 74.7932 % of Cmp 1a and 88.8781 % of Cmp 1a
15 | CC(C(=O)Nc1cccc(-c2nc3ccccc3n2C)c1)n1cccn1 (stereo not shown) [Compound 67, CC(C(=O)NC=1C=CC=C(C1)C2=NC=3C=CC=CC3N2C)N4C=CC=N4] | 3.19 % of Cmp 1a and -6 % of Cmp 1a and -7 % of Cmp 1a |  | 87.0817 % of Cmp 1a and 99.3874 % of Cmp 1a and 88.8295 % of Cmp 1a
16 | Cc1ccc(-c2nc(CC(=O)NCc3ccccc3)cs2)cc1 [Compound 68, CC=1C=CC(=CC1)C2=NC(CC(=O)NCC=3C=CC=CC3)=CS2] | -9 % of Cmp 1a and 15 % of Cmp 1a and 19 % of Cmp 1a |  | 60.0488 % of Cmp 1a and 59.0311 % of Cmp 1a and 102.015 % of Cmp 1a
